Results published in patent US20240158383A1, “RIBONUCLEOTIDE REDUCTASE (RNR) INHIBITORS AND USES THEREOF” (Boundless Bio, Inc., priority 2021, published 2024).

What was measured:
RNR (RNR1:RNR2) = RNR (RNR1:RNR2) (Homo sapiens (Human), UniProt P23921+P31350); assay: RNR enzyme activity, rapid-fire mass spectrometry (RFMS) assay; assay type: biochemical; conditions: [RNR] 50 nM, 1:1 RNR1:RNR2, [CDP] 5 μM, [ATP] 1 mM, 37° C., 45 min
Experimental: A rapid-fire mass spectrometry (RFMS) assay was used to assess RNR enzyme activity using a 384 well plate and a robotic platform.
The plate layout included two validated reference compounds (Triapine (3-AP) and Hydroxyurea (HU)): • A dose response in duplicate; top concentration: 5 μM (3-AP) and 250 μM (HU), semi-log • dilutions. • Spike wells in triplicate randomly spotted at four concentrations: • 250 μM, 100 μM, 30 μM and 2 μM for HU • 5 μM, 2 μM, 0.6 μM and 0.04 μM for 3-AP
First, the multidrop pipes were saturated for 30 minutes with enzymatic solution. Then 30 μL of Stop solution was distributed in column 24. Next, 15 μL of enzyme was distributed in column 1 to 24. Next, a pre-incubation step of 15 minutes at room temperature occurred, followed by distribution of 15 μL of substrate solution (column 1 to 24). Next, the plate was incubated for 45 minutes at 37° C. 30 μL of Stop solution was distributed to columns 1 to 23.
The final parameters for the enzyme reactions were: • Incubation: 37° C., 45 min • [CDP]: 5 μM; [ATP]: 1 mM; [NADPH]: No • [RNR]final: 50 nM with 1:1 (RNR1:RNR2) ratio • Final volume: 30 μL • Stop solution: 6% HCOOH containing 2 μM of 15
The compounds were screened at concentrations from 10 nM to 30 μM.

[1] = tested on: pCHK1 (S345) in Colo320 DM cells; assay: CHK1 cellular activity (phospho-CHK1 AlphaLisa); assay type: cell-based, human; conditions: compound overnight (approximately 16 hours)
Experimental: Phospho-CHK1 cellular activity was measured as a marker of replication stress which is a consequence of RNR inhibition.
Colo320 DM cells (ATCC #CCL-220, derived from human colorectal adenocarcinoma, Dukes' type C) were seeded on a 96-well cell culture treated assay plate at a density of 50,000 cells/well in 200 μL of RPMI-1640 media supplemented with 10% Fetal Bovine Serum and incubated at 37 degrees Celsius overnight. The following day, test compound dilutions were added directly to the plated cells by a Tecan digital dispenser to a final DMSO concentration of <0.5% and incubated at 37 degrees Celsius overnight (approximately 16 hours). The following day all culture media is removed from the cells. 75 μL of 1× AlphaLisa lysis buffer is added to each well and plates are agitated on a shaker for 30 minutes at room temperature. The lysis of cells and detection of pCHK1 (S345) are performed with reagents contained within the AlphaLisa Sure Fire assay kit (Perkin Elmer #ALSU-PCHK1-A) according to the manufacturer's instructions. 10 μL of each lysate was then transferred to a white, 384-well assay plate (Perkin Elmer #6008280). 5 μL of Acceptor mix was then added to each well of lysate in the white, 384-well assay plate and incubated in the dark at room temperature for 60 minutes. 5 μL of Donor mix was then added to each well of the white, 384-well assay plate in subdued light and incubated at room temperature for 60 minutes. Plates are read on an Alpha Technology-compatible plate reader using standard AlphaLisa settings.

Chain of RNR (RNR1:RNR2) (P23921 whole entry): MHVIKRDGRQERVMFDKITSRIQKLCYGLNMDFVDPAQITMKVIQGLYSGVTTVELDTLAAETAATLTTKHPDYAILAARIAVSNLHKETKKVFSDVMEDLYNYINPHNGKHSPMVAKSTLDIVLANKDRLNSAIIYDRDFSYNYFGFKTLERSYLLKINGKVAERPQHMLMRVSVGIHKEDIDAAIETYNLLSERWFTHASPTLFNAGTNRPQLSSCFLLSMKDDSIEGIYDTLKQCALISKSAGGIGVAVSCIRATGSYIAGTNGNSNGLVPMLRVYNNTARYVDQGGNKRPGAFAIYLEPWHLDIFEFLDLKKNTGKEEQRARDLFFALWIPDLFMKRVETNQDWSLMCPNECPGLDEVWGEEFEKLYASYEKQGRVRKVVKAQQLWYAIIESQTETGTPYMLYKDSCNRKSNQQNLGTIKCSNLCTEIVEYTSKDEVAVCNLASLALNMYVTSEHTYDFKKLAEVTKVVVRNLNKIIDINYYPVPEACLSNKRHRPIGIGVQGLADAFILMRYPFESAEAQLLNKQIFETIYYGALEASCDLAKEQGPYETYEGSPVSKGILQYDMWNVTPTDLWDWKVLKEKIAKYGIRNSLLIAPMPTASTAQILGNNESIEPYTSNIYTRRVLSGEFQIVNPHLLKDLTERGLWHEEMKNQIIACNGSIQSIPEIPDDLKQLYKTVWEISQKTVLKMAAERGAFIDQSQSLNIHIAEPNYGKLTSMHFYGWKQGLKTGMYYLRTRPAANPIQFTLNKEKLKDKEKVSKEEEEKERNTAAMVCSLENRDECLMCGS
Chain of RNR (RNR1:RNR2) (P31350 whole entry): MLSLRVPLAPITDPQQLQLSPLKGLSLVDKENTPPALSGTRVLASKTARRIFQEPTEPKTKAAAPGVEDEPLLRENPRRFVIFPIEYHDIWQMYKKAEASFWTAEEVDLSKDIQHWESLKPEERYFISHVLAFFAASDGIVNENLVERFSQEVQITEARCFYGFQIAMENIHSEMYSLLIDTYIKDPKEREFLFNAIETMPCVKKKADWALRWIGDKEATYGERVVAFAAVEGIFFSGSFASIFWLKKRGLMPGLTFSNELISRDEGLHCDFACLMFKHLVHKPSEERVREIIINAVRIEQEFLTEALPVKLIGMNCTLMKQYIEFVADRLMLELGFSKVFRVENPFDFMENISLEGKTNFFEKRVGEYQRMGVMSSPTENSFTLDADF

Structure (SMILES) | IC50 (RNR (RNR1:RNR2)) | IC50 ([1]; Homo sapiens, COLO 320DM, 16 h) | IC50 [1]
Cc1ccc(F)c([C@@H](C)[C@H](NS(=O)(=O)c2ccc(Cl)c(C(C)(O)C(=O)N(C)C)c2)c2nn[nH]n2)c1C (stereo partly drawn) [Example 59, 2-(2-chloro-5-(N-((1S,2R)-2-(6-fluoro-2,3-dimethylphenyl)-1-(2H-tetrazol-5-yl)propyl)sulfamoyl)phenyl)-2-hydroxy-N,N-dimethylpropanamide] | 0.1 to 1 µM | 50 to 100 µM | 
Cc1ccc(F)c([C@@H](C)[C@H](NS(=O)(=O)c2ccc(Cl)cc2C#N)c2nn[nH]n2)c1C [Example 5, 4-chloro-2-cyano-N-((1S2R)-2-(6-fluoro-2,3-dimethylphenyl)-1-(2H-tetrazol-5-yl)propyl)benzenesulfonamide] | 0.1 to 1 µM | 50 to 100 µM | 
[2H]C([2H])([2H])Oc1cc(Cl)ccc1S(=O)(=O)N[C@H](c1nn[nH]n1)[C@H](C)c1c(F)ccc(C)c1C [Example 54, 4-chloro-N-((1S,2R)-2-(6-fluoro-2,3-dimethylphenyl)-1-(2H-tetrazol-5-yl)propyl)-2-(methoxy-d3)benzenesulfonamide] | ≤ 0.1 µM | 10 to 30 µM | 
Cc1ccc(F)c([C@@H](C)[C@H](NS(=O)(=O)c2ncc(Br)cc2C(N)=O)c2nn[nH]n2)c1C (racemic) [Example 15, rac-5-bromo-2-(N-((1R,2S)-2-(6-fluoro-2,3-dimethylphenyl)-1-(2H-tetrazol-5-yl)propyl)sulfamoyl)nicotinamide] | ≤ 0.1 µM | 50 to 100 µM | 
CCc1cc(Cl)ccc1S(=O)(=O)N[C@H](c1nn[nH]n1)[C@H](C)c1c(F)ccc(C)c1C [Example 20, 4-chloro-2-ethyl-N-((1S,2R)-2-(6-fluoro-2,3-dimethylphenyl)-1-(2H-tetrazol-5-yl)propyl)benzenesulfonamide] | 0.1 to 1 µM | 30 to 50 µM | 
Cc1ccc(F)c([C@@H](C)[C@H](NS(=O)(=O)c2ccc(Cl)c3c2OCC[C@@]3(C)O)c2nn[nH]n2)c1C (single isomer, unassigned) [Example 4] | ≤ 0.1 µM |  | 10 to 30 µM
CNC(=O)c1cc(Cl)ccc1S(=O)(=O)N[C@H](c1nn[nH]n1)[C@H](C)c1c(F)ccc(C)c1C [Example 76, 5-chloro-2-(N-((1S,2R)-2-(6-fluoro-2,3-dimethylphenyl)-1-(2H-tetrazol-5-yl)propyl)sulfamoyl)-N-methylbenzamide] | 0.1 to 1 µM | 50 to 100 µM | 
COc1c(S(=O)(=O)N[C@H](c2nn[nH]n2)[C@H](C)c2c(F)ccc(C)c2C)ccc(Cl)c1[C@@H](C)O (racemic) [Example 17, rac-4-chloro-N-((1R,2S)-2-(6-fluoro-2,3-dimethylphenyl)-1-(2H-tetrazol-5-yl)propyl)-3-((S)-1-hydroxyethyl)-2-methoxybenzenesulfonamide] | ≤ 0.1 µM | 10 to 30 µM | 
Cc1cc(S(=O)(=O)N[C@H](c2nn[nH]n2)[C@H](C)c2c(F)ccc(C)c2C)c(F)cc1Cl [Example 42] | 1 to 5 µM | 50 to 100 µM | 
Cc1ccc(F)c([C@@H](C)[C@H](NS(=O)(=O)c2ccc(Cl)cc2CC(=O)N2CCOCC2)c2nn[nH]n2)c1C [Example 26, 4-chloro-N-((1S,2R)-2-(6-fluoro-2,3-dimethylphenyl)-1-(2H-tetrazol-5-yl)propyl)-2-(2-morpholino-2-oxoethyl)benzenesulfonamide] | 0.1 to 1 µM | 50 to 100 µM | 
Cc1ccc(F)c([C@@H](C)[C@H](NS(=O)(=O)c2ccc(Cl)c3c2OCCC3=O)c2nn[nH]n2)c1C [Example 9, 5-chloro-N-((1S,2R)-2-(6-fluoro-2,3-dimethylphenyl)-1-(2H-tetrazol-5-yl)propyl)-4-oxochromane-8-sulfonamide] | ≤ 0.1 µM | 50 to 100 µM | 
Cc1ccc(F)c([C@@H](C)[C@H](NS(=O)(=O)c2cc(C(C)(C)O)c(Cl)cc2C(N)=O)c2nn[nH]n2)c1C (racemic) [Example 13, rac-5-chloro-2-(N-((1R,2S)-2-(6-fluoro-2,3-dimethylphenyl)-1-(2H-tetrazol-5-yl)propyl)sulfamoyl)-4-(2-hydroxypropan-2-yl)benzamide] | ≤ 0.1 µM | 50 to 100 µM | 
Cc1ccc(F)c([C@@H](C)[C@H](NS(=O)(=O)c2ccc(Cl)cc2OC(F)(F)F)c2nn[nH]n2)c1C [Example 30, 4-chloro-N-((1S,2R)-2-(6-fluoro-2,3-dimethylphenyl)-1-(2H-tetrazol-5-yl)propyl)-2-(trifluromethoxy)benzenesulfonamdie] | ≤ 0.1 µM | 10 to 30 µM | 
Cc1ccc(F)c([C@@H](C)[C@H](NS(=O)(=O)c2ccc(Cl)cc2Cl)c2nn[nH]n2)c1C [Example 39, 2,4-dichloro-N-((1S,2R)-2-(6-fluoro-2,3-dimethylphenyl)-1-(2H-tetrazol-5-yl)propyl)benzenesulfonamide] | 0.1 to 1 µM | 10 to 30 µM | 
COC(=O)Cc1cc(Cl)ccc1S(=O)(=O)N[C@H](c1nn[nH]n1)[C@H](C)c1c(F)ccc(C)c1C (racemic) [Example 14, rac-methyl 2-(5-chloro-2-(N-((1R,2S)-2-(6-fluoro-2,3-dimethylphenyl)-1-(2H-tetrazol-5-yl)propyl)sulfamoyl)phenyl)acetate] | 0.1 to 1 µM | 10 to 30 µM | 
Cc1ccc(F)c([C@@H](C)[C@H](NS(=O)(=O)c2ccc(Cl)c(C(F)(F)C(=O)N(C)C)c2)c2nn[nH]n2)c1C [Example 72, 2-(2-chloro-5-(N-((1S,2R)-2-(6-fluoro-2,3-dimethylphenyl)-1-(2H-tetrazol-5-yl)propyl)sulfamoyl)phenyl)-2,2-difluoro-N,N-dimethylacetamide] | 0.1 to 1 µM | 50 to 100 µM | 
Cc1ccc(F)c([C@@H](C)[C@H](NS(=O)(=O)c2ccc(Cl)cc2OC(F)F)c2nn[nH]n2)c1C [Example 27, 4-chloro-2-(difluoromethoxy)-N-((1S,2R)-2-(6-fluoro-2,3-dimethylphenyl)-1-(2H-tetrazol-5-yl)propyl)benzenesulfonamide] | ≤ 0.1 µM | 10 to 30 µM | 
Cc1cc(Cl)ccc1S(=O)(=O)N[C@H](c1nn[nH]n1)[C@H](C)c1c(F)ccc(C)c1C [Example 25, 4-chloro-N-((1S,2R)-2-(6-fluoro-2,3-dimethylphenyl)-1-(2H-tetrazol-5-yl)propyl)-2-methylbenzenesulfonamide] | 0.1 to 1 µM | 10 to 30 µM | 
Cc1ccc(F)c([C@@H](C)[C@H](NS(=O)(=O)c2cc(Cl)ccc2Cl)c2nn[nH]n2)c1C [Example 45] | 5 to 30 µM | 50 to 100 µM | 
Cc1ccc(F)c([C@@H](C)[C@H](NS(=O)(=O)c2cc(Cl)c(F)cc2F)c2nn[nH]n2)c1C [Example 36, 5-chloro-2,4-difluoro-N-((1S,2R)-2-(6-fluoro-2,3-dimethylphenyl)-1-(2H-tetrazol-5-yl)propyl)benzenesulfonamide] | 1 to 5 µM | 50 to 100 µM | 
Cc1ccc(F)c([C@@H](C)[C@H](NS(=O)(=O)c2ccc(Cl)cc2N(C)C)c2nn[nH]n2)c1C (racemic) [Example 71, rac-4-chloro-2-(dimethylamino)-N-((1R,2S)-2-(6-fluoro-2,3-dimethylphenyl)-1-(2H-tetrazol-5-yl)propyl)benzenesulfonamide] | ≤ 0.1 µM | ≤ 10 µM | 
Cc1ccc(F)c([C@@H](C)[C@H](NS(=O)(=O)c2ccc(F)c(C(N)=O)c2)c2nn[nH]n2)c1C [Example 38, 2-fluoro-5-(N-((1S,2R)-2-(6-fluoro-2,3-dimethylphenyl)-1-(2H-tetrazol-5-yl)propyl)sulfamoyl)benzamide] | 1 to 5 µM | 50 to 100 µM | 
